System: 743489-274-T-PDC complex spheroid growth
Test: Anticancer human tumor 743489-274-T-PDC patient-derived renal cell carcinoma cell line growth inhibition [AhR]
Conditions: for IC50: curve of first compound; for viability, T/C: stronger effect = lower value
Source text: Multicellular complex tumor spheroid response to aryl hydrocarbon receptor antagonists in combination with a variety of drugs and investigational agents in selected tumor cell lines
The current study was undertaken to assess response to aryl hydrocarbon receptor antagonists in combination with standard-of-care drugs and investigational agents in solid tumor complex spheroid models. Complex spheroids include a stromal component modeled by human endothelial cells (HUVEC) and fibroblasts modeled by human mesenchymal stem cells (MSCs). The concentration ranges selected for each drug and investigational agent were based upon clinically achievable concentrations if the clinical Cmax of the agent was known.
Compounds. The drugs and investigational agents: BAY 2416964 (NSC825713), GNF351 (NSC835774), CH-223191 (NSC835775), CPI-455 (NSC825282), aza-TdCyd (NSC777586), decitabine (NSC127716), belinostat (NSC758774), entinostat (NSC756642), pevonedistat (NSC761192), tazemetostat (NSC777109), talazoparib (NSC765396), olaparib (NSC753686), selinexor (NSC780203), nedisertib (M3814, NSC802822), bortezomib (NSC756655), venetoclax (NSC766270), doxorubicin (NSC123127), elimusertib (BAY189344, NSC800525), ceralasertib (AZD6738, NSC777638), TAK-243 (NSC785004), alisertib (NSC759677), etoposide (NSC141540), topotecan (NSC609699), eribulin (NSC707389), gemcitabine (NSC613327), carboplatin (NSC241240), cisplatin (NSC119875), and SN-38 (NSC673596) were obtained from the National Cancer Institute (NCI) Developmental Therapeutics Program Chemical Repository (32). The FDA-approved anticancer drug set is available from the Developmental Therapeutics Program at https://dtp.cancer.gov/organization/dscb/obtaining/available plates.htm. […] The stock solutions were prepared in dimethyl sulfoxide (DMSO, Sigma-Aldrich, St. Louis, MO, cat. D2650), except for the platinum compounds which were prepared in saline (Quality Biological, Gaithersburg, MD, cat. 114-055-101), at 800-fold the tested concentration and stored at -70 degrees C prior to their use. All drugs and investigational agents were tested over a range starting from a high concentration at or near the clinical Cmax and decreasing in half-log increments. If the clinical Cmax for an agent had not been determined, the highest concentration tested was 10 microM (Table 1).
Cell Culture. All cells were maintained in an incubator at 37 degrees C and 5% CO2 with 95% humidity. The PDC lines were cultured according to standard operating procedures established by the NCI PDMR (https://pdmr.cancer.gov). Briefly, all PDCs were thawed and cultured in Matrigel-coated flasks prepared with a working solution of 1X Ham's F-12 nutrient mix, without supplementation (Invitrogen, Waltham, MA, cat. 11765054), 100 U/mL penicillin-streptomycin (Invitrogen, cat. 15140122), and 2.5% Matrigel (Corning Inc., Corning, NY, cat. 354248) for the first three passages. All PDCs were cultured in complete DMEM/F-12 media containing advanced DMEM/F-12 (Invitrogen, cat. 12634028), 4.9% defined fetal bovine serum, heat inactivated (HyClone Laboratories Inc., Logan, UT, cat. SH30070.03HI), 389 ng/mL hydrocortisone (Sigma-Aldrich, cat. H4001), 9.7 ng/mL human EGF recombinant protein (Invitrogen, cat. PHG0313), 23.4 microg/mL adenine (Sigma-Aldrich, cat. A2786), 97.3 U/mL penicillin-streptomycin (Invitrogen, cat. 15140122), 1.9 mM L-glutamine (Invitrogen, cat. 25030081), and 9.7 microM Y-27632 dihydrochloride (Tocris Bioscience, Bristol, United Kingdom, cat. 1254). The PDCs were cultured in complete DMEM/F12 media without 10 microM Y-27632 dihydrochloride for at least two passages prior to the screen. The established cell lines NCI-H1341 and […] were cultured in DMEM/F-12, HEPES (Invitrogen, cat. 11330032), 5% defined fetal bovine serum (HyClone Laboratories Inc., cat. SH30070.03), ITS premix universal culture supplement [insulin (5 microg/mL), transferrin (5 microg/mL), and selenious acid (5 ng/mL)] […]

[1] = second compound 0.1 µM, first compound 0.0316 µM
[2] = second compound 0.1 µM, first compound 0.1 µM
[3] = second compound 0.1 µM, first compound 0.316 µM
[4] = second compound 0.1 µM, first compound 1 µM
[5] = second compound 0.1 µM, first compound 3.16 µM
[6] = second compound 0.1 µM, first compound 10 µM
[7] = second compound 0.316 µM, first compound 0.0316 µM
[8] = second compound 0.316 µM, first compound 0.1 µM
[9] = second compound 0.316 µM, first compound 0.316 µM
[10] = second compound 0.316 µM, first compound 1 µM
[11] = second compound 0.316 µM, first compound 3.16 µM
[12] = second compound 0.316 µM, first compound 10 µM
[13] = second compound 1 µM, first compound 0.0316 µM
[14] = second compound 1 µM, first compound 0.1 µM
[15] = second compound 1 µM, first compound 0.316 µM
[16] = second compound 1 µM, first compound 1 µM
[17] = second compound 1 µM, first compound 3.16 µM
[18] = second compound 1 µM, first compound 10 µM
[19] = second compound 3.16 µM, first compound 0.0316 µM
[20] = second compound 3.16 µM, first compound 0.1 µM
[21] = second compound 3.16 µM, first compound 0.316 µM
[22] = second compound 3.16 µM, first compound 1 µM
[23] = second compound 3.16 µM, first compound 3.16 µM
[24] = second compound 3.16 µM, first compound 10 µM
[25] = second compound 10 µM, first compound 0.0316 µM
[26] = second compound 10 µM, first compound 0.1 µM
[27] = second compound 10 µM, first compound 0.316 µM
[28] = second compound 10 µM, first compound 1 µM
[29] = second compound 10 µM, first compound 3.16 µM
[30] = second compound 10 µM, first compound 10 µM
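Note: spheroids exposed to agents for 7 days before readout.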
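Throughout, for viability, T/C: 100% = DMSO vehicle control wells.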

For `CC(C)CC(NC(=O)C(Cc1ccccc1)NC(=O)c1cnccn1)B(O)O` (stereo not given) + CC(CO)NC(=O)c1cc(-c2ccc(Cl)cc2)nn(-c2cnn(C)c2)c1=O, the IC50 (second compound 0.1 µM) was 0.0213 µM, the IC50 (second compound 0.316 µM) was 0.0215 µM and the IC50 (second compound 1 µM) was 0.0198 µM. It also gave an IC50 (second compound 3.16 µM) of 0.0182 µM, an IC50 (second compound 10 µM) of 0.0166 µM and a viability, T/C (second compound 0.1 µM, first compound 0.000949 µM) of 106%. The viability, T/C (second compound 0.1 µM, first compound 0.003 µM) was 102%, the viability, T/C (second compound 0.1 µM, first compound 0.00949 µM) was 104% and the viability, T/C (second compound 0.1 µM, first compound 0.03 µM) was 27.3%. The viability, T/C (second compound 0.1 µM, first compound 0.0949 µM) was 10.7%, the viability, T/C (second compound 0.1 µM, first compound 0.3 µM) was 4.68% and the viability, T/C (second compound 0.316 µM, first compound 0.000949 µM) was 90.2%. The viability, T/C (second compound 0.316 µM, first compound 0.003 µM) was 102%, the viability, T/C (second compound 0.316 µM, first compound 0.00949 µM) was 102% and the viability, T/C (second compound 0.316 µM, first compound 0.03 µM) was 30.3%. It also gave a viability, T/C (second compound 0.316 µM, first compound 0.0949 µM) of 11.1%, a viability, T/C (second compound 0.316 µM, first compound 0.3 µM) of 4.81% and a viability, T/C (second compound 1 µM, first compound 0.000949 µM) of 90.5%. It also gave a viability, T/C (second compound 1 µM, first compound 0.003 µM) of 104%, a viability, T/C (second compound 1 µM, first compound 0.00949 µM) of 94.9% and a viability, T/C (second compound 1 µM, first compound 0.03 µM) of 24.6%. It also gave a viability, T/C (second compound 1 µM, first compound 0.0949 µM) of 9.8%, a viability, T/C (second compound 1 µM, first compound 0.3 µM) of 4.5% and a viability, T/C (second compound 3.16 µM, first compound 0.000949 µM) of 94.3%. For the same molecule, the viability, T/C (second compound 3.16 µM, first compound 0.003 µM) was 96.7%, the viability, T/C (second compound 3.16 µM, first compound 0.00949 µM) was 87.1% and the viability, T/C (second compound 3.16 µM, first compound 0.03 µM) was 21.2%. For the same molecule, the viability, T/C (second compound 3.16 µM, first compound 0.0949 µM) was 10.7%, the viability, T/C (second compound 3.16 µM, first compound 0.3 µM) was 3.25% and the viability, T/C (second compound 10 µM, first compound 0.000949 µM) was 98%. It also gave a viability, T/C (second compound 10 µM, first compound 0.003 µM) of 111%, a viability, T/C (second compound 10 µM, first compound 0.00949 µM) of 85.4% and a viability, T/C (second compound 10 µM, first compound 0.03 µM) of 12.6%. For the same molecule, the viability, T/C (second compound 10 µM, first compound 0.0949 µM) was 10.3% and the viability, T/C (second compound 10 µM, first compound 0.3 µM) was 4.28%.
In the case of `Nc1ccccc1NC(=O)c1ccc(CNC(=O)OCc2cccnc2)cc1` + CC(CO)NC(=O)c1cc(-c2ccc(Cl)cc2)nn(-c2cnn(C)c2)c1=O, the IC50 (second compound 0.1 µM) is reported as 4.81 µM, the IC50 (second compound 0.316 µM) is reported as 3.74 µM and the IC50 (second compound 1 µM) is reported as 4.31 µM. It also gave an IC50 (second compound 3.16 µM) of 1.74 µM, an IC50 (second compound 10 µM) of 1.08 µM and a viability, T/C [1] of 92.7%. For the same molecule, the viability, T/C [2] was 92.3%, the viability, T/C [3] was 92.9% and the viability, T/C [4] was 72.5%. The viability, T/C [5] was 61.8%, the viability, T/C [6] was 32.9% and the viability, T/C [7] was 89.1%. The viability, T/C [8] was 80.9%, the viability, T/C [9] was 87.9% and the viability, T/C [10] was 62.6%. It also gave a viability, T/C [11] of 55.4%, a viability, T/C [12] of 34.6% and a viability, T/C [13] of 92.5%. For the same molecule, the viability, T/C [14] was 91%, the viability, T/C [15] was 80.5% and the viability, T/C [16] was 78.4%. For the same molecule, the viability, T/C [17] was 56.4%, the viability, T/C [18] was 29.7% and the viability, T/C [19] was 88.4%. For the same molecule, the viability, T/C [20] was 88.5%, the viability, T/C [21] was 78% and the viability, T/C [22] was 59.7%. The viability, T/C [23] was 39.7%, the viability, T/C [24] was 27.7% and the viability, T/C [25] was 79.1%. The viability, T/C [26] was 87.3%, the viability, T/C [27] was 69.2% and the viability, T/C [28] was 52.4%. For the same molecule, the viability, T/C [29] was 31.3% and the viability, T/C [30] was 23.4%.
Molecule `O=C(C=Cc1cccc(S(=O)(=O)Nc2ccccc2)c1)NO` + CC(CO)NC(=O)c1cc(-c2ccc(Cl)cc2)nn(-c2cnn(C)c2)c1=O has an IC50 (second compound 0.1 µM) of 9.26 µM, an IC50 (second compound 0.316 µM) of 7.72 µM and an IC50 (second compound 1 µM) of 9.6 µM. For the same molecule, the IC50 (second compound 3.16 µM) was 8.29 µM, the IC50 (second compound 10 µM) was 7.34 µM and the viability, T/C [1] was 97.6%. For the same molecule, the viability, T/C [2] was 87.1%, the viability, T/C [3] was 86.9% and the viability, T/C [4] was 80.3%. It also gave a viability, T/C [5] of 76.4%, a viability, T/C [6] of 47.1% and a viability, T/C [7] of 82.4%. The viability, T/C [8] was 88.5%, the viability, T/C [9] was 74.4% and the viability, T/C [10] was 76.9%. For the same molecule, the viability, T/C [11] was 61.8%, the viability, T/C [12] was 46.4% and the viability, T/C [13] was 82.5%. It also gave a viability, T/C [14] of 89%, a viability, T/C [15] of 84% and a viability, T/C [16] of 75.8%. The viability, T/C [17] was 62.7%, the viability, T/C [18] was 49.4% and the viability, T/C [19] was 82.5%. The viability, T/C [20] was 80%, the viability, T/C [21] was 76.2% and the viability, T/C [22] was 70.2%. The viability, T/C [23] was 59.2%, the viability, T/C [24] was 48.3% and the viability, T/C [25] was 85.3%. The viability, T/C [26] was 87.8%, the viability, T/C [27] was 83.2% and the viability, T/C [28] was 74.7%. It also gave a viability, T/C [29] of 66.9% and a viability, T/C [30] of 43.9%.

From PubChem BioAssay AID1919002 (Molecular Pharmacology Branch, DTP, NCI, 2023)
